Results reported in patent US12037583B2, “Compositions and methods for immunooncology” (Novartis AG, priority 2015, dated 2024).

Assays:
[1] = tested on: TRAC; assay: Editing of TRAC by dgRNAs in HEK cells stably expressing Cas9 (NGS); assay type: cell-based, human; details: dgRNA delivered to HEK cells stably expressing Cas9, target TRAC, mean of at least 3 experiments
Description: (§1) FIG. 12: Mean (n≥3) editing of CRISPR systems with dgRNAs as indicated to TRAC in HEK cells (stably expressing Cas9) or primary human CD3+ T cells (delivery of dgRNA:Cas9 RNP by electroporation).

[2] = tested on: TRAC locus; assay: Genomic editing of the TRAC locus in primary human CD3+ T cells by RNP electroporation (NGS: % indels, % frameshift edits, indel pattern); assay type: cell-based; details: dgRNA/Cas9 RNP by electroporation, target TRAC; for mean FS edit (%): frameshift edits in primary human CD3+ T cells; for mean total % edit: primary human CD3+ T cells, mean of at least 3 experiments;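 for all read-outs here: total edit is the insertion or deletion frequency at TRAC, and the frameshift value is the share of those indels that shift the coding frame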
Description: as §1
FIG. 33C: Genomic editing of the TRAC locus resulting from human primary T cell electroporation with RNP containing the indicated gRNA targeting the TRAC locus is shown. The frequency of insertions or deletions is indicated (% indels) and the percentage of these edits that result in frameshifting of the coding sequence is shown (% frameshift edits).
Data for each experiment are the average from triplicate PCR products.

[3] = tested on: PDCD1; assay: NGS editing of PDCD1 by dgRNA in HEK cells stably expressing Cas9; assay type: cell-based, human; details: at least 3 experiments;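 note: dgRNA lipofected into Cas9-expressing HEK cells, lysed after 24 h, target amplicon sequenced, editing = reads carrying insertions or deletions as percent of all reads including wild type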
Description: Transfection of Cas9GFP-expressing HEK293 cells (HEK-293_Cas9GFP) was used for primary screening of target specific crRNAs. […] Selected crRNAs were chemically synthesized and delivered in a 96 well format. HEK-293-Cas9GFP cells were transfected with target crRNAs comprising a flagpole region of SEQ ID NO: 6607 in a 1:1 ratio with stock trRNA of SEQ ID NO: 6660. The transfection was mediated using lipofection technology according to manufacturer's protocol (DharmaFECT Duo, GE LifeSciences; or RNAiMax, LifeTechnologies). Transfected cells were lysed 24 h following lipofection and editing (e.g., cleavage) was detected within lysates with the T7E1 assay and/or next generation sequencing (NGS; below).
PCR primers were first designed around the target site, and the genomic area of interest PCR amplified. Additional PCR was performed according to manufacturer's protocols (Illumina) to add the necessary chemistry for sequencing. The amplicons were then sequenced on an Illumina MiSeq instrument. The reads were then aligned to the human reference genome (e.g., hg38) after eliminating those having low quality scores. From the resulting files containing the reads mapped to the reference genome (BAM files), reads which overlap the target region of interest were selected and the number of wild type reads versus the number of reads which contain an insertion or deletion was calculated. The editing percentage was then defined as the total number of reads with insertions or deletions over the total number of reads, including wild type. To determine the pattern of insertions and/or deletions that resulted from the edit, the aligned reads with indels were selected and the number of a reads with a given indel were summed.
Editing of CRISPR systems containing dgRNA molecules comprising targeting domains to sequences of PDCD1 were tested for editing in HEK (gRNA delivered to cells stably expressing Cas9) and CD3+ T cells (gRNA and Cas9 delivered as RNP) according to the methods described herein.
All mean editing % are as measured by NGS and are based on at least 3 experiments.

| Substance | mean % edit [1] [%] | mean FS edit (%) [2] [%] | mean total % edit [2] [%] | HEK (NGS) % Editing Mean [3] [%] |
| --- | --- | --- | --- | --- |
| AAAGCUGCCCUUACCUGGGC (chemistry not given here; listed as Homo sapiens) [CR000976] | 2.8 | 1.7 | 1.8 | – |
| AACAAAUGUGUCACAAAGUA (chemistry not given here; listed as Homo sapiens) [CR000966] | 65.2 | 21.0 | 22.0 | – |
| AACGAGAAUCAUCUGCCUGC (chemistry not given here; listed as Homo sapiens) [CR000945] | 32.3 | 2.2 | 2.3 | – |
| AAGGUUCAGAUCAGAAGAGG (chemistry not given here; listed as Homo sapiens) [CR000921] | 58.3 | 11.3 | 12.7 | – |
| ACAAGUGCCCACAGGAAGCC (chemistry not given here; listed as Homo sapiens) [CR000930] | 12.2 | 7.1 | 9.9 | – |
| ACCAACUCACACAUACAGCC (chemistry not given here; listed as Homo sapiens) [CR000949] | 30.2 | 2.5 | 2.5 | – |
| ACCAGAGAUGUCUGUGCAGG (targeting domain within guide RNA, chemistry not given here, further chemistry not given here; listed as Homo sapiens) [CR000935] | 54.2 | – | – | – |
| ACCCGGCCACUUUCAGGAGG (chemistry not given here; listed as Homo sapiens) [CR000989] | 54.5 | 18.2 | 28.2 | – |
| AGAGCAACAGUGCUGUGGCC (chemistry not given here; listed as Homo sapiens) [CR000970] | 13.4 | 9.3 | 10.9 | – |
| AGAGUGAUUAUUAUUUAUUC (chemistry not given here; listed as Homo sapiens) [CR000941] | 33.4 | 7.6 | 9.6 | – |
| AGCAGCUUUCACCUCCUUGG (chemistry not given here; listed as Homo sapiens) [CR001009] | 65.3 | 22.8 | 27.3 | – |
| AGGAAGGAGCGAGGGAGCAC (chemistry not given here; listed as Homo sapiens) [CR000996] | 52.3 | 8.6 | 11.1 | – |
| AGGCUUCUCACCCUGCAGCA (chemistry not given here; listed as Homo sapiens) [CR000923] | 67.4 | 32.7 | 37.3 | – |
| AGUUGGUGGCAUUGCCGGGG (chemistry not given here; listed as Homo sapiens) [CR001015] | 35.9 | 20.4 | 21.8 | – |
| AUAUGUGCAGCUCAGGGUCA (chemistry not given here; listed as Homo sapiens) [CR000937] | 50.9 | 10.8 | 15.8 | – |
| AUCCUCCUCCUGAAAGUGGC (chemistry not given here; listed as Homo sapiens) [CR000987] | 39.6 | 18.2 | 20.6 | – |

| Substance | mean % edit [1] [%] | mean FS edit (%) [2] [%] | mean total % edit [2] [%] | HEK (NGS) % Editing Mean [3] [%] |
| --- | --- | --- | --- | --- |
| CAAUGCAGAGGAAGGAGCGA (chemistry not given here; listed as Homo sapiens) [CR000997] | 11.6 | 6.4 | 6.7 | – |
| CACACCUCUUGUCUUUGGAA (chemistry not given here; listed as Homo sapiens) [CR000954] | 22.3 | 2.6 | 2.7 | – |
| CACCAAAGCUGCCCUUACCU (chemistry not given here; listed as Homo sapiens) [CR000977] | 80.6 | 35.7 | 44.2 | – |
| CCACUUUCAGGAGGAGGAUU (chemistry not given here; listed as Homo sapiens) [CR000986] | 68.6 | 14.8 | 36.4 | – |
| CCAGGGCAUGCCAUGCUCAC (chemistry not given here; listed as Homo sapiens) [CR000928] | 54.2 | 14.6 | 18.1 | – |
| CCUGUGAGCAUGGCAUGCCC (chemistry not given here; listed as Homo sapiens) [CR000927] | 68.7 | 22.6 | 23.8 | – |
| CR000919: dgRNA targeting domain to PDCD1 (guide GGAAAAGAGUGAGACUCACC; targeting domain within dual guide RNA, chemistry not given here, further chemistry not given here; listed as Homo sapiens) | – | – | – | 42 |
| CUACCACCUCUGUGCCCCCC (chemistry not given here; listed as Homo sapiens) [CR001012] | 64.5 | 22.9 | 31.5 | – |
| CUGACAGGUUUUGAAAGUUU (chemistry not given here; listed as Homo sapiens) [CR000981] | 70.0 | 25.1 | 37.6 | – |
| CUGGGGAAGAAGGUGUCUUC (chemistry not given here; listed as Homo sapiens) [CR000973] | 39.7 | 12.4 | 16.2 | – |
| CUUCAAGAGCAACAGUGCUG (chemistry not given here; listed as Homo sapiens) [CR000969] | 34.0 | 20.9 | 24.8 | – |
| GAGAAUCAAAAUCGGUGAAU (chemistry not given here; listed as Homo sapiens) [CR000964] | 51.2 | 23.5 | 27.0 | – |
| GAGGCUUCUCACCCUGCAGC (chemistry not given here; listed as Homo sapiens) [CR000922] | 37.8 | 5.0 | 6.4 | – |
| GAGUUCCCUCUGUUUGGAGA (chemistry not given here; listed as Homo sapiens) [CR001004] | 47.2 | 6.4 | 6.7 | – |
| GCAAUGCAGAGGAAGGAGCG (chemistry not given here; listed as Homo sapiens) [CR000998] | 4.3 | 2.2 | 2.4 | – |
| GCCUCCUGCACAGACAUCUC (targeting domain within guide RNA, chemistry not given here, further chemistry not given here; listed as Homo sapiens) [CR000936] | 59.7 | – | – | – |
